# Calls of active or inactive are those of the source. No cut-off for these calls is given here.
# Experiments:
# [1] = test system: Plasmacytoid dendritic cell; assay: Inhibition of F1F0-ATP synthase in human plasmacytoid dendritic cells at 1 uM assessed as decrease in TNF production; assay type: cell-based
# [2] = test system: Plasmacytoid dendritic cell; assay: Inhibition of F1F0-ATP synthase in CpG-A-stimulated human plasmacytoid dendritic cells at 1 uM assessed as reduction in IFN-alpha production in presence of 10 uM heptelidic acid; assay type: cell-based
# [3] = test system: Plasmacytoid dendritic cell; assay: Inhibition of F1F0-ATP synthase in human plasmacytoid dendritic cells at 1 uM assessed as decrease in IFN-alpha production; assay type: cell-based
# [4] = test system: Plasmacytoid dendritic cell; assay: Inhibition of F1F0-ATP synthase in CpG-A-stimulated human plasmacytoid dendritic cells at 1 uM assessed as reduction in TNF production in presence of 10 uM heptelidic acid; assay type: cell-based
# [5] = target: T1, mTORC1 (Homo sapiens) (UniProt P42345+Q8N122+Q9BVC4); details: Plasmacytoid dendritic cell, dose 20.0 nM
# Description: Inhibition of mTORC1 in CpG-A-stimulated human plasmacytoid dendritic cells at 20 nM assessed as decrease in lactate release
# [6] = target: Tyrosine-protein kinase JAK2 (Homo sapiens) (UniProt O60674); assay: Inhibition of JAK2 in IL3- and CpG-A-activated human plasmacytoid dendritic cells at 20 nM assessed as decrease in MYO1E/IFNA2 expression; assay type: cell-based; details: Plasmacytoid dendritic cell
# [7] = target: T1, mTORC1 (Homo sapiens); details: Plasmacytoid dendritic cell, dose 250.0 nM
# Description: Inhibition of mTORC1 in CpG-A-stimulated human plasmacytoid dendritic cells at 250 nM assessed as decrease in lactate release
# [8] = target: Tyrosine-protein kinase JAK2 (Homo sapiens) (UniProt O60674); assay: Inhibition of JAK2 in IL3- and CpG-A-activated human plasmacytoid dendritic cells at 20 nM assessed as decrease in ENPP2/IFNA2 expression; assay type: cell-based; details: Plasmacytoid dendritic cell
# [9] = target: Tyrosine-protein kinase JAK2 (Homo sapiens) (UniProt O60674); assay: Inhibition of JAK2 in TLR9-activated human plasmacytoid dendritic cells at 20 nM assessed as decrease in CpG-A stimulated SLC7A11 expression; assay type: cell-based; details: Plasmacytoid dendritic cell
# [10] = target: Large neutral amino acids transporter small subunit 1 (Homo sapiens) (UniProt Q01650); assay: Inhibition of human LAT1 at 100 uM relative to control
# [11] = target: T2, Cystine/glutamate transporter (Homo sapiens, UniProt Q9UPY5); assay: Inhibition of XCT (unknown origin)
# T2 sequence (Q9UPY5 whole entry): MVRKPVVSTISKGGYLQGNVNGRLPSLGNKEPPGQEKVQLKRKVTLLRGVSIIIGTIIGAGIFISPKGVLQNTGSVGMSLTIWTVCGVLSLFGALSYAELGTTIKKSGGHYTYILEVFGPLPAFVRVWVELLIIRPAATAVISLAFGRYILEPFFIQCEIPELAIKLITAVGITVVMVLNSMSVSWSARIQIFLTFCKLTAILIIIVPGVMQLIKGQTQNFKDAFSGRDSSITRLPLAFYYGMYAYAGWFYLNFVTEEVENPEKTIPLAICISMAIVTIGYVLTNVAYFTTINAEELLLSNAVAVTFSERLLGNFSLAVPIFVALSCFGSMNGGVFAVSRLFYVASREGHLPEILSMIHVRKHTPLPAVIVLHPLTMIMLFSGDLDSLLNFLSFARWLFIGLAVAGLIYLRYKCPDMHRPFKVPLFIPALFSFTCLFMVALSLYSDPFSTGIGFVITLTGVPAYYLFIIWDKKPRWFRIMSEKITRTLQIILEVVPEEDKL
# [12] = target: T3, Cystine/glutamate transporter (Homo sapiens) (UniProt Q9UPY5); assay: Inhibition of XCT in CpG-A-activated human plasmacytoid dendritic cells at 25 to 100 uM assessed as decrease in TNF production in presence of 100 uM sulfasalazine; assay type: cell-based; details: Plasmacytoid dendritic cell, dose 25-100 µM
# T3 sequence (whole entry): T2 sequence (Q9UPY5 whole entry)
# [13] = target: T3, Cystine/glutamate transporter (Homo sapiens); assay: Inhibition of XCT in CpG-A-activated human plasmacytoid dendritic cells at 1 uM assessed as decrease in IFN-alpha production; assay type: cell-based; details: Plasmacytoid dendritic cell
# [14] = target: T3, Cystine/glutamate transporter (Homo sapiens); assay: Inhibition of XCT in CpG-A-activated human plasmacytoid dendritic cells at 5 uM assessed as decrease in S6 phosphorylation; assay type: cell-based; details: Plasmacytoid dendritic cell
# [15] = target: T3, Cystine/glutamate transporter (Homo sapiens); assay: Inhibition of XCT in CpG-A-activated human plasmacytoid dendritic cells at 1 uM assessed as decrease in TNF production; assay type: cell-based; details: Plasmacytoid dendritic cell
# [16] = target: T3, Cystine/glutamate transporter (Homo sapiens); assay: Inhibition of XCT in CpG-A-activated human plasmacytoid dendritic cells at 5 uM assessed as decrease in kynurenine uptake; assay type: cell-based; details: Plasmacytoid dendritic cell
# [17] = target: T3, Cystine/glutamate transporter (Homo sapiens); assay: Inhibition of XCT in CpG-A-activated human plasmacytoid dendritic cells at 10 uM assessed as decrease in ENPP2 expression; assay type: cell-based; details: Plasmacytoid dendritic cell
# [18] = target: T3, Cystine/glutamate transporter (Homo sapiens); assay: Inhibition of XCT in CpG-A-activated human plasmacytoid dendritic cells at 10 uM assessed as decrease in MYO1E expression; assay type: cell-based; details: Plasmacytoid dendritic cell
# [19] = target: T3, Cystine/glutamate transporter (Homo sapiens); assay: Inhibition of XCT in CpG-A-activated human plasmacytoid dendritic cells at 5 uM assessed as decrease in IFN-alpha production; assay type: cell-based; details: Plasmacytoid dendritic cell
# [20] = target: T3, Cystine/glutamate transporter (Homo sapiens); assay: Inhibition of XCT in CpG-A-activated human plasmacytoid dendritic cells at 5 uM assessed as decrease in TNF production; assay type: cell-based; details: Plasmacytoid dendritic cell
# [21] = test system: Plasmacytoid dendritic cell; assay: Inhibition of mTORC1/mTORC2 in CpG-A and IL-3-activated human plasmacytoid dendritic cells at 200 ng/mL assessed as decrease in SLC3A2 expression; assay type: cell-based
# [22] = test system: Plasmacytoid dendritic cell; assay: Inhibition of mTORC1/mTORC2 in CpG-A and IL-3-activated human plasmacytoid dendritic cells at 200 ng/mL assessed as decrease in IFN-alpha production; assay type: cell-based
# [23] = test system: Plasmacytoid dendritic cell; assay: Inhibition of mTORC1/mTORC2 in TLR9-activated human plasmacytoid dendritic cells at 1 uM assessed as decrease in CpG-A stimulated SLC7A11 expression; assay type: cell-based
# [24] = test system: Plasmacytoid dendritic cell; assay: Inhibition of mTORC1/mTORC2 in IL-3 and CpG-A-activated human plasmacytoid dendritic cells at 200 nM assessed as decrease in decrease in MYO1E/IFNA2 expression; assay type: cell-based
# [25] = test system: Plasmacytoid dendritic cell; assay: Inhibition of mTORC1/mTORC2 in IL-3 and CpG-A-activated human plasmacytoid dendritic cells at 200 nM assessed as decrease in decrease in ENPP2/IFNA2 expression; assay type: cell-based
# [26] = test system: Plasmacytoid dendritic cell; assay: Inhibition of mTORC1/mTORC2 in CpG-A and IL-3-activated human plasmacytoid dendritic cells at 200 ng/mL assessed as decrease in SLC7A5 expression; assay type: cell-based
# [27] = test system: Plasmacytoid dendritic cell; assay: Inhibition of mTORC1/mTORC2 in CpG-A and IL-3-activated human plasmacytoid dendritic cells at 200 ng/mL assessed as decrease in TNF production; assay type: cell-based
# [28] = target: Glyceraldehyde-3-phosphate dehydrogenase (Homo sapiens) (UniProt P04406); assay: Inhibition of GAPDH in CpG-A-stimulated human plasmacytoid dendritic cells at 10 uM assessed as reduction in secreted lactate levels; assay type: cell-based; details: Plasmacytoid dendritic cell
# [29] = target: Glyceraldehyde-3-phosphate dehydrogenase (Homo sapiens) (UniProt P04406); assay: Inhibition of GAPDH in CpG-A-stimulated human plasmacytoid dendritic cells at 10 uM assessed as reduction in IFNa-alpha production; assay type: cell-based; details: Plasmacytoid dendritic cell
# [30] = target: Glyceraldehyde-3-phosphate dehydrogenase (Homo sapiens) (UniProt P04406); assay: Inhibition of GAPDH in CpG-A-stimulated human plasmacytoid dendritic cells at 10 uM assessed as reduction in TNF production in presence of 1 uM oligomycin; assay type: cell-based; details: Plasmacytoid dendritic cell
# [31] = target: Glyceraldehyde-3-phosphate dehydrogenase (Homo sapiens) (UniProt P04406); assay: Inhibition of GAPDH in CpG-A-stimulated human plasmacytoid dendritic cells at 10 uM assessed as reduction in IFN-alpha production in presence of 1 uM oligomycin; assay type: cell-based; details: Plasmacytoid dendritic cell
# [32] = target: Glyceraldehyde-3-phosphate dehydrogenase (Homo sapiens) (UniProt P04406); assay: Inhibition of GAPDH in CpG-A-stimulated human plasmacytoid dendritic cells at 10 uM assessed as reduction in overall protein synthesis; assay type: cell-based; details: Plasmacytoid dendritic cell
# [33] = target: Glyceraldehyde-3-phosphate dehydrogenase (Homo sapiens) (UniProt P04406); assay: Inhibition of GAPDH in CpG-A-stimulated human plasmacytoid dendritic cells at 10 uM assessed as reduction in TNF production; assay type: cell-based; details: Plasmacytoid dendritic cell
# [34] = target: T3, Cystine/glutamate transporter (Homo sapiens); assay: Inhibition of XCT in CpG-A-activated human plasmacytoid dendritic cells at 200 uM assessed as decrease in ENPP2 expression; assay type: cell-based; details: Plasmacytoid dendritic cell
# [35] = target: T3, Cystine/glutamate transporter (Homo sapiens); assay: Inhibition of XCT in CpG-A-activated human plasmacytoid dendritic cells at 200 uM assessed as decrease in MYO1E expression; assay type: cell-based; details: Plasmacytoid dendritic cell
# [36] = target: T3, Cystine/glutamate transporter (Homo sapiens); assay: Inhibition of XCT in CpG-A-activated human plasmacytoid dendritic cells at 200 uM assessed as decrease in S6 phosphorylation; assay type: cell-based; details: Plasmacytoid dendritic cell
# [37] = target: T3, Cystine/glutamate transporter (Homo sapiens); assay: Inhibition of XCT in CpG-A-activated human plasmacytoid dendritic cells at 200 uM assessed as decrease in TNF production; assay type: cell-based; details: Plasmacytoid dendritic cell
# [38] = target: T3, Cystine/glutamate transporter (Homo sapiens); assay: Inhibition of XCT in CpG-A-activated human plasmacytoid dendritic cells at 200 uM assessed as decrease in kynurenine uptake; assay type: cell-based; details: Plasmacytoid dendritic cell
# [39] = target: T3, Cystine/glutamate transporter (Homo sapiens); assay: Inhibition of XCT in CpG-A-activated human plasmacytoid dendritic cells at 200 uM assessed as decrease in IFN-alpha production; assay type: cell-based; details: Plasmacytoid dendritic cell
# [40] = target: Tyrosine-protein kinase JAK2 (Homo sapiens) (UniProt O60674); assay: Inhibition of JAK2 in CpG-A-activated human plasmacytoid dendritic cells at 100 uM assessed as decrease in TNF production in presence of 25 to 100 uM baricitinib; assay type: cell-based; details: Plasmacytoid dendritic cell
# [41] = target: T3, Cystine/glutamate transporter (Homo sapiens); assay: Inhibition of XCT in CpG-A-activated human plasmacytoid dendritic cells at 100 uM assessed as decrease in IFN-alpha production in presence of 25 to 100 uM baricitinib; assay type: cell-based; details: Plasmacytoid dendritic cell
# [42] = test system: Plasmacytoid dendritic cell; assay: Inhibition of SLC7A5/SLC3A2 in CpG-A-stimulated human plasmacytoid dendritic cells at 10 uM assessed as decrease in kynurenine transport; assay type: cell-based
# Sequence of Tyrosine-protein kinase JAK2 (Homo sapiens) (O60674 whole entry): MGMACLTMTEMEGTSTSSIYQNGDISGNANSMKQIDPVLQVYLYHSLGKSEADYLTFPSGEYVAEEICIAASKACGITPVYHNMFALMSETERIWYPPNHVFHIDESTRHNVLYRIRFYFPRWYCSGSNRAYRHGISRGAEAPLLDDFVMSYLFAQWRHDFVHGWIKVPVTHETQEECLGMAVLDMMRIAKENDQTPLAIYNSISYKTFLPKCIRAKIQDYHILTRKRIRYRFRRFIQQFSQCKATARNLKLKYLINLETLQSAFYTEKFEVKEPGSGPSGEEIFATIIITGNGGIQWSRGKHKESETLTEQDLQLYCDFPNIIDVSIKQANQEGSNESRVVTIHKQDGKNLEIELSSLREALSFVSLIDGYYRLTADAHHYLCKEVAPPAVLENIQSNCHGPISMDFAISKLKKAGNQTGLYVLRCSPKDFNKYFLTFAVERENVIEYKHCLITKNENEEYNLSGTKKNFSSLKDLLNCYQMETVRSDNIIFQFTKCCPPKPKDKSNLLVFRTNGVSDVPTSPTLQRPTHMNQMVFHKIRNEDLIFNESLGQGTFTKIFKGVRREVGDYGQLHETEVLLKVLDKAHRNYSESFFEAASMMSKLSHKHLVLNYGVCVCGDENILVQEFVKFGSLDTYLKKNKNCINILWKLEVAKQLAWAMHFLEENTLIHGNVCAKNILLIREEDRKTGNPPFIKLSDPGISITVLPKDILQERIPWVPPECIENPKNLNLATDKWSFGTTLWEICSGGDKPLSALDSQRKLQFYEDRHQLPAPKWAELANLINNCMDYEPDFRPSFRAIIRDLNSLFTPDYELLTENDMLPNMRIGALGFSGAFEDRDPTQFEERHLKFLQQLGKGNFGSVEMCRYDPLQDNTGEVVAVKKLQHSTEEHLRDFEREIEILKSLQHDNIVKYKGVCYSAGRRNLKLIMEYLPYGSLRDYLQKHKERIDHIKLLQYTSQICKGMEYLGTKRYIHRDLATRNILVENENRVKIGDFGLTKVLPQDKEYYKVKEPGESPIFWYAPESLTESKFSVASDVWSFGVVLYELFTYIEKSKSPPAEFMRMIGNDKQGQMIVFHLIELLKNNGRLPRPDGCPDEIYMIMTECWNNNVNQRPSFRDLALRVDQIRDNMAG
# Sequence of Glyceraldehyde-3-phosphate dehydrogenase (Homo sapiens) (P04406 2-335 limits assumed): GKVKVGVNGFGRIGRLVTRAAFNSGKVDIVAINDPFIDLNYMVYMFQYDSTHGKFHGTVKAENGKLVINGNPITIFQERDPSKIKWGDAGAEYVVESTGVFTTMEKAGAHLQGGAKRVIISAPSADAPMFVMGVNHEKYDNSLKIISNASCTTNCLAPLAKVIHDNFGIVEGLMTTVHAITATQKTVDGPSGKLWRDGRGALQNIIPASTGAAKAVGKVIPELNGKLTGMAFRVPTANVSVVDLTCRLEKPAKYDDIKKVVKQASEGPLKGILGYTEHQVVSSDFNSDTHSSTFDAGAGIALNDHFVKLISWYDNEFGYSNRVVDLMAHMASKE
# T1 sequence (Q8N122 whole entry, looked up, other chains not shown): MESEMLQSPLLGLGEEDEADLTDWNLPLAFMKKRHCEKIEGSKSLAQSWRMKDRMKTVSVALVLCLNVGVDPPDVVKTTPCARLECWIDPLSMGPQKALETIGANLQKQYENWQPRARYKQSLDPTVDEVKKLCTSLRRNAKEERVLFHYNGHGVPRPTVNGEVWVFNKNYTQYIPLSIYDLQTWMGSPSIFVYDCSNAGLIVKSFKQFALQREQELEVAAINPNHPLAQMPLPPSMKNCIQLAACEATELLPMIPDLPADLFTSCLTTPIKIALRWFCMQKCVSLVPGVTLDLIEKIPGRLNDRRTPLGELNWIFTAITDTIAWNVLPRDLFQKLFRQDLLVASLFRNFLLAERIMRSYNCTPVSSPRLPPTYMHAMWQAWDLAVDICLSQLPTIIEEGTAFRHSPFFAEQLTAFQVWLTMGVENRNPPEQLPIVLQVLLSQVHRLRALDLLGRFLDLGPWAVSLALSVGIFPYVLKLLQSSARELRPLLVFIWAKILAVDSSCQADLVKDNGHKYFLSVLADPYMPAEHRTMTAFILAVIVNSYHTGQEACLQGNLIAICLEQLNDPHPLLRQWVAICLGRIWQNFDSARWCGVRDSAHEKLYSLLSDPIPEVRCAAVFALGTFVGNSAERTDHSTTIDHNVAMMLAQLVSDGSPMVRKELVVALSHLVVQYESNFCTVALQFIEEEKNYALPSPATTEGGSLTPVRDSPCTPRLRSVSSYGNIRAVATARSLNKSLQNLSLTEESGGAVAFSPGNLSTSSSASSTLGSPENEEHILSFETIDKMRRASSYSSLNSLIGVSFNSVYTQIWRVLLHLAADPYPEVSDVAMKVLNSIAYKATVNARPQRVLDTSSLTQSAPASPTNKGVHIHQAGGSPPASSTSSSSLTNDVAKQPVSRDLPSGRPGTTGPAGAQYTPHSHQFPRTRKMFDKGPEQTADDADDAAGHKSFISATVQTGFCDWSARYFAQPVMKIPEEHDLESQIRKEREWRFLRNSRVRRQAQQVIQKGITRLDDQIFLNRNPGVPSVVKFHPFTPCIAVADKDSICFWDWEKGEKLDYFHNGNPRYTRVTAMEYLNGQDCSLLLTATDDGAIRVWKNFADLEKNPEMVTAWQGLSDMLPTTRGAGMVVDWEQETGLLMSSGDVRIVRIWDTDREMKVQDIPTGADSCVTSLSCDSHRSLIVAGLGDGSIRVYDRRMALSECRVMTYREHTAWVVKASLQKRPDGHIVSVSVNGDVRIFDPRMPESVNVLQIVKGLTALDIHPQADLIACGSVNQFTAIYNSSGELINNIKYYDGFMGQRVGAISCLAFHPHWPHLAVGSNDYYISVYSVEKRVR
# T1 sequence (Q9BVC4 whole entry, looked up, other chains not shown): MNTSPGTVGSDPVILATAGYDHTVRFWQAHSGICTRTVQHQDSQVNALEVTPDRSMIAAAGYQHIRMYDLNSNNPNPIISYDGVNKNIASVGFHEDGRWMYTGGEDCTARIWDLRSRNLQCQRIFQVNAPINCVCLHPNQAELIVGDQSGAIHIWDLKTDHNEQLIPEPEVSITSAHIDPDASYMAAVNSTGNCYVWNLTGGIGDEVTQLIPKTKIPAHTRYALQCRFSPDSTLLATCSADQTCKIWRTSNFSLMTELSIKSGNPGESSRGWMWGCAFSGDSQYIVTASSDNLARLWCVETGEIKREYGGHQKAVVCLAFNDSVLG
# Sequence of Large neutral amino acids transporter small subunit 1 (Homo sapiens) (Q01650 whole entry): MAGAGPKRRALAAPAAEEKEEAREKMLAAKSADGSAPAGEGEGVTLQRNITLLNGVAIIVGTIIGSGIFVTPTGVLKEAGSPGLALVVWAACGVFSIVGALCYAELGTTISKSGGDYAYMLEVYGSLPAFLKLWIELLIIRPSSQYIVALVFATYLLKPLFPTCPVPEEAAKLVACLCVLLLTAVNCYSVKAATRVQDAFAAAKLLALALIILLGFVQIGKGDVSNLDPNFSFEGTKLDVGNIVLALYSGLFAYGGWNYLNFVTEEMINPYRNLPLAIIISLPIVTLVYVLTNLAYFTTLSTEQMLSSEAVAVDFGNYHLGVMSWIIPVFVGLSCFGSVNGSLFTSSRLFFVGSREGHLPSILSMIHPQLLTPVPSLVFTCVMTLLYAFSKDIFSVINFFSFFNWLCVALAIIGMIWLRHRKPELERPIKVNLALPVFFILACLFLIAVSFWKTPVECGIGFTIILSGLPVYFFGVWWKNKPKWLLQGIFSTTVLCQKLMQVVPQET
smiles,measurement,setting,value
CC[C@H]1/C=C/C=C/C[C@@H](C)[C@H](O)[C@@](C)(O)C(=O)[C@@H](C)[C@H](O)[C@@H](C)C(=O)[C@@H](C)[C@H](O)[C@@H](C)/C=C/C(=O)O[C@@H]2[C@H](C)[C@H](CC1)O[C@]1(CC[C@H](C)[C@H](C[C@@H](C)O)O1)[C@H]2C,inhibition,[1],inactive
same,inhibition,[2],Active
same,inhibition,[3],Active
same,inhibition,[4],Active
CO[C@H]1CC2CC[C@@H](C)[C@@](O)(O2)C(=O)C(=O)N2CCCC[C@H]2C(=O)O[C@H]([C@H](C)C[C@@H]2CC[C@@H](O)[C@H](OC)C2)CC(=O)[C@H](C)/C=C(\C)[C@@H](O)[C@@H](OC)C(=O)[C@H](C)C[C@H](C)/C=C/C=C/C=C/1C,inhibition,[5],Active
same,inhibition,[6],Active
same,inhibition,[7],Active
same,inhibition,[8],Active
same,inhibition,[9],Active
N#Cc1cc(Cl)ccc1/N=c1\ssnc1Cl,inhibition,[10],> 90%
Nc1c(/N=N/c2ccc(Br)cc2)cc(S(=O)(=O)O)c2ccccc12,IC50,[11],25 µM
Nc1c(/N=N/c2ccc(Oc3ccccc3)cc2)cc(S(=O)(=O)O)c2ccccc12,IC50,[11],14 µM
Nc1c(/N=N/c2ccc(SSc3ccc(/N=N/c4cc(S(=O)(=O)O)c5ccccc5c4N)cc3)cc2)cc(S(=O)(=O)O)c2ccccc12,IC50,[11],4.3 µM
CCS(=O)(=O)N1CC(CC#N)(n2cc(-c3ncnc4[nH]ccc34)cn2)C1,inhibition,[12],Active
Nc1c(/N=N/c2ccc(I)cc2)cc(S(=O)(=O)O)c2ccccc12,IC50,[11],14 µM
CCOc1ccccc1-n1c(C(C)N2CCN(C(=O)COc3ccc(Cl)cc3)CC2)nc2ccccc2c1=O (stereo not given),inhibition,[13],Active
same,inhibition,[14],Active
same,inhibition,[15],Active
same,inhibition,[16],Active
same,inhibition,[17],Active
same,inhibition,[18],Active
same,inhibition,[19],Active
same,inhibition,[20],Active
CCC(=O)N1CCN(c2ccc(-n3c(=O)ccc4cnc5ccc(-c6cnc7ccccc7c6)cc5c43)cc2C(F)(F)F)CC1,inhibition,[21],Active
same,inhibition,[22],Active
same,inhibition,[23],Active
same,inhibition,[24],Active
same,inhibition,[25],Active
same,inhibition,[26],Active
same,inhibition,[27],Active
Nc1ccc(/N=N/c2ccc(-c3ccc(/N=N/c4ccc(N)c5ccc(S(=O)(=O)O)cc45)cc3)cc2)c2cc(S(=O)(=O)O)ccc12,IC50,[11],4.3 µM
CC(C)[C@H]1CC[C@@]2(CO2)[C@H]2C(=O)OCC(C(=O)O)=C[C@H]12,inhibition,[28],Active
same,inhibition,[29],Active
same,inhibition,[30],Active
same,inhibition,[31],Active
same,inhibition,[32],Active
same,inhibition,[33],Active
Cc1cc(Nc2nc(N[C@@H](C)c3ncc(F)cn3)ncc2Cl)[nH]n1,inhibition,[23],Active
FC(F)(F)Oc1ccc(/N=c2\ssnc2Cl)cc1Cl,inhibition,[10],> 90%
O=C(O)c1cc(/N=N/c2ccc(S(=O)(=O)Nc3ccccn3)cc2)ccc1O [SULFASALAZINE],inhibition,[34],Active
same,IC50,[11],10.4 µM
same,inhibition,[35],Active
same,inhibition,[36],Active
same,inhibition,[37],Active
same,inhibition,[38],Active
same,inhibition,[39],Active
same,inhibition,[40],Active
same,inhibition,[41],Active
Nc1c(/N=N/c2ccc(Oc3ccc(/N=N/c4cc(S(=O)(=O)O)c5ccccc5c4N)cc3)cc2)cc(S(=O)(=O)O)c2ccccc12,IC50,[11],11 µM
NC1(C(=O)O)CC2CCC1C2 (stereo not given),inhibition,[42],Active

# From ChEMBL document CHEMBL5393442, “Combined inhibition of amino acid transporters for inhibiting human plasmacytoid dendritic cell activity during autoimmunity” (2022)
